Laboratory results as given in patent publication US9834773B2, “Methods and means for metabolic engineering and improved product formation by micro-organisms” (Universiteit Leiden, priority 2006, dated 2017).

Tests used:
[1] = molecular target: DasR (Streptomyces coelicolor, UniProt Q9K492); assay: EMSA binding interference experiment: ability of compounds to interfere with binding of DasR to the nagB and crr promoters; details: for effect on formation of the complex of DasR with the nagB promoter (EMSA): 10 nM fluorescent probe, 3 μM purified DasR, 500-fold excess of non-specific DNA, 50, 100, 150, and 200 mM compound
Method: FIG. 12. […] EMSAs were performed with 10 nM fluorescent probe, 3 μM purified DasR, and 500-fold excess of non-specific DNA.
EMSAs were performed with fluorescent probes (10 nM) with an ALF express sequencer (Filee et al., 2001). Purified DasR (3 μM) and 1000-fold excess of non-specific DNA were used in the reaction mixture. Predicted cis-acting elements were taken from the promoter regions of actII-ORF4 (SCO5085; 5′-[…]-3′ (SEQ ID NO:530)), and redZ (SCO5881; 5′-[…]-3′ (SEQ ID NO:531)). Known cis-acting elements upstream of crr (SCO1390; […]-3′ (SEQ ID NO:532)), and crp (SCO3571; 5′-[…]-3′ (SEQ ID NO:533)) were used as positive and negative controls, respectively. The 16 nt dre sites are underlined.
A pivotal question is what is the effector molecule that modulates DasR? As shown in here, many of the targets for DasR relate to the generation (chitinolytic system), transport (PTS^GlcNAc), and metabolism (glycolysis via fructose 6-P) of N-acetylglucosamine. We therefore looked for the inducer among the intermediate molecules that gravitate around aminosugar metabolism. A binding interference experiment was set up where the ability of compounds to interfere with binding of dasR to the nagB and crr promoters was tested. […] The finding that glucosamine-6-P serves as an effector of DasR is explained by its central position at the metabolic crossroads between (GlcNAc)n extracellular degradation, N-acetylglucosamine transport and intracellular metabolism, lipid and nitrogen metabolism, glycolysis, and peptidoglycan synthesis (FIG. 13).

[2] = test system: S. coelicolor M145, M510, M511, M512; assay: Pigmented antibiotic (actinorhodin, undecylprodigiosin) production on MM agar plates with or without GlcNAc; type: cell-based, Streptomyces coelicolor
Source text: FIG. 2. Effect of dasR on development and antibiotic production. (A) Antibiotic production by S. coelicolor M145 and its dasR mutant BAP29 on minimal medium agar plates with or without GlcNAc. […] The latter is in line with our discovery that (i) ActV4A is enhanced in the mutant (FIG. 4) and (ii) the identification of a DasR-bound dre upstream of the pathway-specific activator genes actII-ORF4 for actinorhodin production and redZ for undecylprodigiosin production. Unexpectedly, the dasR mutant grown on minimal media with GlcNAc presents the expression of a yet unchartacterized green pigment. (B) Overexpression of DasR causes developmental arrest. Left, S. coelicolor M145 with control plasmid pUWL-KS; right, the same strain with a plasmid over-expressing dasR (grown for 4 days at 30° C.); note the almost complete lack of aerial hyphae (white) in the strain over-expressing DasR; (C) Scanning electron micrographs of aerial hyphae and spores of S. coelicolor M145 and the dasR mutant BAP29. […] Bars represent 5 μm. (D) Transmission electron micrographs of spores of M145 (left) and BAP29 (right). Arrows indicate the voids between the cell wall and the membrane. FD, full detachment; ID, incomplete detachment.
E. coli DH5α, and BL21(DE3) were used for subcloning and DasR overexpression experiments. S. coelicolor M145, M510 (M145 ΔredD), M511 (M145 ΔactII-IV) and M512 (M145 ΔactII-IV ΔredD) (Floriano and Bibb, 1996) and Streptomzyces lividans 1326 were all obtained from the John Innes Centre strain collection, Streptomyces avermitilis NRRL 8165 (MA-4680), Streptonzyces hygroscopicus ATCC27438, Streptomyces limosus ATCC 19778, Streptomyces rinzosus ATCC 10970, Streptonzyces roseosporus ATCC 31568 and Streptonzyces venezuelae ATCC15439 were obtained from the ATCC strain collection and Streptomyces acrinzycini DSM 40540, Streptomyces cinnanzonensis DSM 40467, Streptomyces clavuligerus NRRL 3585, Streptomyces collinus DSM 40733 and Streptomyces griseus NRRL B2682 from the DSMZ strain collection. The dasR mutant BAP29 (ΔdasR::accC4) was created by replacing the coding region of the gene by the apramycin resistance gene cassette, using plasmid pWHM3, according to a routine procedure (Nothaft et al., 2003). The same strategy was used to create the knock-out mutants for ptsH (BAP1), crr (BAP2), ptsI (BAP3), nagE1 (BAP4), nagE2 (BAP5), and nagE1/E2 (BAP6). BAP1-3 were published previously (Nothaft et al., 2003). S. coelicolor strains were grown at 28° C. using tryptic soy broth without dextrose as complex medium (TSB, Difco) or minimal medium (van Wezel et al., 2005). E. coli cultures were grown in Luria-Bertani broth (LB) at 37° C. Phenotypic characterization of mutants was done on minimal medium agar plates with various carbon sources as indicated in the text (Kieser et al., 2000). Quantification of Act and Red was performed as described previously (Martinez-Costa et al., 1996).
Arguing from the regulatory pathway deduced from the newly extended characterization of the DasR regulon (FIG. 22), we anticipated that DasR-dependent transport and phosphorylation of GlcNAc via the PTS could be a decisive signal to trigger actinorhodin and undecylprodigiosin biosynthesis in S. coelicolor. This hypothesis was tested by plating S. coelicolor M510 (ΔredD), M511 (ΔactII-ORF4) and M512 (ΔredD, ΔactII-ORF4) on MM agar plates with or without GlcNAc. […]

Chain of DasR (Q9K492 whole entry): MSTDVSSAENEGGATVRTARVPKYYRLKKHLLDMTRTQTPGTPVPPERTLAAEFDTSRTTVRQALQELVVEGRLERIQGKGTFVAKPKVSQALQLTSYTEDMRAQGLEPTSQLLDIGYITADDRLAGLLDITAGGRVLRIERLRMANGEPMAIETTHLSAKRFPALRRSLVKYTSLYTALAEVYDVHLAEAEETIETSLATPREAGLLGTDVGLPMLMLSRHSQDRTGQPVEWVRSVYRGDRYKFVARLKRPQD

SMILES: CC(=O)N[C@H]1C(O)O[C@H](CO)[C@@H](O)[C@@H]1O (some centres unmarked) [N-acetylglucosamine]
- effect on formation of the complex of DasR with the nagB promoter (EMSA) [1]: it was the only of the compounds tested that prevented the formation of a complex
- effect on formation of the complex of DasR with the nagB promoter (EMSA) ([1]; listed as GlcNAc): no effect
- effect on formation of the complex of DasR with the crr promoter region (EMSA) ([1]; crr promoter, data not shown): it was the only of the compounds tested that prevented the formation of a complex
- induction of the pigmented antibiotics actinorhodin and undecylprodigiosin ([2]; S. coelicolor M145, minimal medium agar plates with or without GlcNAc): required for induction
- production of Act (actinorhodin) ([2]; S. coelicolor M510 (ΔredD), MM agar, GlcNAc 10 mM, five days): induced
- production of Red (undecylprodigiosin) ([2]; S. coelicolor M511 (ΔactII-ORF4), MM agar, GlcNAc 10 mM, five days): induced
- pigmented antibiotic production ([2]; S. coelicolor M512 (ΔredD, ΔactII-ORF4), MM agar, GlcNAc 10 mM): No pigmented antibiotic was observed
- concentration at which the 'GlcNAc effect' was observed ([2]; effect of GlcNAc on antibiotic production and development): > 5 mM
